Laboratory results from paper PMC7506137, “Selective Phosphodiesterase 1 Inhibitor BTTQ Reduces Blood Pressure in Spontaneously Hypertensive and Dahl Salt Sensitive Rats: Role of Peripheral Vasodilation” (Frontiers in Physiology, 2020).
Read-outs that look alike come from different tables or passages of the source.

Test: Plasma exposure (dried blood spot) after single oral dose
Assay type: in vivo
Settings: male, Sprague Dawley, rat, whole blood (dried blood spot), po
Experimental: Male Sprague Dawley rats at 6 to 7 weeks were dosed orally by p.o. gavage with different doses of BTTQ formulated in 1% hydroxyethlycellulose (Dow Corning, Midland, MI, United States) (w/v), 0.25% polysorbate 80 (Sigma-Aldrich, St. Louis, MO, United States) (v/v), and 0.05% antifoam (v/v; Dow Corning, Midland, MI, United States) in purified water. Following dosing, ear temperature was measured by using a k-type thermocouple probe digital thermometer (Cole Parmer) every hour for 6 h and then at 24 h. Blood samples for plasma exposure measurement were obtained at the same time. Blood was collected via a tail snip directly into a 20-μL EDTA-coated capillary and immediately spotted onto a Whatman DMPK-C DBS card (GE Healthcare Bio-Sciences). Tail snips were performed by removing approximately 1 mm of the tail by using a scalpel. Blood flow was initiated by gentle squeezing of the tail. No analgesia or anesthesia was used during blood collections. A single sample and spot were collected per time point. The DBS cards were allowed to dry for approximately 2 h at room temperature, after which the cards were placed in a zip-top bag, stored, and shipped at ambient temperature.

[1] = 1 mg/kg, oral 1 mg/kg, FU 0.053, read-out: Unbound Concentration, individual animals
[2] = 1 mg/kg, oral 1 mg/kg, dried blood spot, read-out: Concentration, Mean
[3] = 1 mg/kg, oral 1 mg/kg, dried blood spot, read-out: Concentration, individual animals
[4] = 1 mg/kg, oral 1 mg/kg, FU 0.053, read-out: Unbound Concentration, Mean
[5] = 3 mg/kg, oral 3 mg/kg, FU 0.053, read-out: Unbound Concentration, Mean
[6] = 3 mg/kg, oral 3 mg/kg, FU 0.053, read-out: Unbound Concentration, individual animals
[7] = 3 mg/kg, oral 3 mg/kg, dried blood spot, read-out: Concentration, Mean
[8] = 3 mg/kg, oral 3 mg/kg, dried blood spot, read-out: Concentration, individual animals

`O=c1c2nnc(C3(C4CC4)CC3)n2c2c(n1CC1CC1)CCCC2` [BTTQ, 1-[1,1′-bi(cyclopropyl)-1-yl]-5-(cyclopropylmethyl)-6,7,8,9-tetrahydro[1,2,4]triazolo[4,3-A]quinoxaline-4(5H)-one] showed a concentration at 2 h [1] of 88.5 nM, a concentration at 2 h [2] of 1650 nM and a concentration at 2 h [3] of 1670 nM. It also gave a concentration at 3 h [4] of 62.1 nM, a concentration at 3 h [1] of 64.1 nM and a concentration at 3 h [2] of 1170 nM. It also gave a concentration at 3 h [3] of 1210 nM, a concentration at 4 h [4] of 57.3 nM and a concentration at 4 h [1] of 47.7 nM. For the same molecule, the concentration at 4 h [2] was 1080 nM, the concentration at 4 h [3] was 900 nM and the concentration at 5 h [4] was 49.6 nM. The concentration at 5 h [1] was 41.1 nM, the concentration at 5 h [2] was 935 nM and the concentration at 5 h [3] was 775 nM. For the same molecule, the concentration at 6 h [4] was 41.3 nM, the concentration at 6 h [1] was 41.3 nM and the concentration at 6 h [2] was 780 nM. The concentration at 6 h [3] was 779 nM, the concentration at 24 h [4] was 2.13 nM and the concentration at 24 h [2] was 40.2 nM. For the same molecule, the concentration at 1 h [5] was 197 nM, the concentration at 1 h [6] was 142 nM and the concentration at 1 h [7] was 3710 nM. The concentration at 1 h [8] was 2670 nM, the concentration at 2 h [5] was 195 nM and the concentration at 2 h [6] was 166 nM. For the same molecule, the concentration at 2 h [7] was 3690 nM, the concentration at 2 h [8] was 3140 nM and the concentration at 3 h [5] was 168 nM. For the same molecule, the concentration at 3 h [6] was 169 nM, the concentration at 3 h [7] was 3170 nM and the concentration at 3 h [8] was 3180 nM. For the same molecule, the concentration at 4 h [5] was 148 nM, the concentration at 4 h [6] was 155 nM and the concentration at 4 h [7] was 2790 nM. For the same molecule, the concentration at 4 h [8] was 2920 nM, the concentration at 5 h [5] was 115 nM and the concentration at 5 h [6] was 142 nM.
